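The compound was tested at five concentrations on cells cultured in 96-well plates, with a 48-hour exposure period. TGI: concentration producing complete growth inhibition.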
What was measured:
Test in all cases: NCI anticancer screen, dose series, 48 h
KM12 colon = test system: KM12 colon
OVCAR-5 ovarian = test system: OVCAR-5 ovarian
SK-MEL-5 melanoma = test system: SK-MEL-5 melanoma
SF-539 CNS = test system: SF-539 CNS
COLO 205 colon = test system: COLO 205 colon
M14 melanoma = test system: M14 melanoma
NCI-H460 lung = test system: NCI-H460 lung
SW-620 colon = test system: SW-620 colon
DU-145 prostate = test system: DU-145 prostate
OVCAR-8 ovarian = test system: OVCAR-8 ovarian
NCI-H23 lung = test system: NCI-H23 lung
UACC-62 melanoma = test system: UACC-62 melanoma
HOP-62 NSCLC = test system: HOP-62 NSCLC
MCF7 breast = test system: MCF7 breast
NCI/ADR-RES ovarian = test system: NCI/ADR-RES ovarian
UO-31 renal = test system: UO-31 renal
U251 CNS = test system: U251 CNS
SNB-19 CNS = test system: SNB-19 CNS
UACC-257 melanoma = test system: UACC-257 melanoma
OVCAR-4 ovarian = test system: OVCAR-4 ovarian
RPMI-8226 leukemia = test system: RPMI-8226 leukemia
MALME-3M melanoma = test system: MALME-3M melanoma
OVCAR-3 ovarian = test system: OVCAR-3 ovarian
T-47D breast = test system: T-47D breast
HCT-15 colon = test system: HCT-15 colon
786-0 renal = test system: 786-0 renal
HT29 colon = test system: HT29 colon
HL-60(TB) leukemia = test system: HL-60(TB) leukemia
SF-295 CNS = test system: SF-295 CNS
PC-3 prostate = test system: PC-3 prostate
RXF 393 renal = test system: RXF 393 renal
TK-10 renal = test system: TK-10 renal
SK-OV-3 ovarian = test system: SK-OV-3 ovarian
IGROV1 ovarian = test system: IGROV1 ovarian
SN12C renal = test system: SN12C renal
HS 578T breast = test system: HS 578T breast
MDA-MB-435 = test system: MDA-MB-435
ACHN renal = test system: ACHN renal
EKVX NSCLC = test system: EKVX NSCLC
CAKI-1 renal = test system: CAKI-1 renal
SR leukemia = test system: SR leukemia
A498 renal = test system: A498 renal
K-562 leukemia = test system: K-562 leukemia
A549 NSCLC = test system: A549 NSCLC
SF-268 CNS = test system: SF-268 CNS
MOLT-4 leukemia = test system: MOLT-4 leukemia
BT-549 breast = test system: BT-549 breast
LOX IMVI melanoma = test system: LOX IMVI melanoma
HCT-116 colon = test system: HCT-116 colon
SK-MEL-2 melanoma = test system: SK-MEL-2 melanoma
HOP-92 NSCLC = test system: HOP-92 NSCLC
MDA-MB-231 breast = test system: MDA-MB-231 breast
SK-MEL-28 melanoma = test system: SK-MEL-28 melanoma
MDA-N = test system: MDA-N
NCI-H226 lung = test system: NCI-H226 lung
NCI-H522 lung = test system: NCI-H522 lung
CCRF-CEM leukemia = test system: CCRF-CEM leukemia
SNB-75 CNS = test system: SNB-75 CNS
HCC-2998 colon = test system: HCC-2998 colon

O=C(CSc1nc2ccccc2s1)c1sc2sc3ccccc3[n+]2c1[O-]
TGI (KM12 colon): > 100 µM | TGI (OVCAR-5 ovarian): > 100 µM | TGI (SK-MEL-5 melanoma): > 100 µM | TGI (SF-539 CNS): > 100 µM | TGI (COLO 205 colon): > 100 µM | TGI (M14 melanoma): > 100 µM | TGI (NCI-H460 lung): > 100 µM | TGI (SW-620 colon): > 100 µM | TGI (DU-145 prostate): > 100 µM | TGI (OVCAR-8 ovarian): > 100 µM | TGI (NCI-H23 lung): > 100 µM | TGI (UACC-62 melanoma): > 100 µM | TGI (HOP-62 NSCLC): > 100 µM | TGI (MCF7 breast): > 100 µM | TGI (NCI/ADR-RES ovarian): > 100 µM | TGI (UO-31 renal): > 100 µM | TGI (U251 CNS): > 100 µM | TGI (SNB-19 CNS): > 100 µM | TGI (UACC-257 melanoma): > 100 µM | TGI (OVCAR-4 ovarian): > 100 µM | TGI (RPMI-8226 leukemia): > 100 µM | TGI (MALME-3M melanoma): > 100 µM | TGI (OVCAR-3 ovarian): > 100 µM | TGI (T-47D breast): > 100 µM | TGI (HCT-15 colon): > 100 µM | TGI (786-0 renal): > 100 µM | TGI (HT29 colon): > 100 µM | TGI (HL-60(TB) leukemia): > 100 µM | TGI (SF-295 CNS): > 100 µM | TGI (PC-3 prostate): > 100 µM | TGI (RXF 393 renal): > 100 µM | TGI (TK-10 renal): > 100 µM | TGI (SK-OV-3 ovarian): > 100 µM | TGI (IGROV1 ovarian): > 100 µM | TGI (SN12C renal): > 100 µM | TGI (HS 578T breast): > 100 µM | TGI (MDA-MB-435): > 100 µM | TGI (ACHN renal): > 100 µM | TGI (EKVX NSCLC): > 100 µM | TGI (CAKI-1 renal): > 100 µM | TGI (SR leukemia): > 100 µM | TGI (A498 renal): > 100 µM | TGI (K-562 leukemia): > 100 µM | TGI (A549 NSCLC): > 100 µM | TGI (SF-268 CNS): > 100 µM | TGI (MOLT-4 leukemia): > 100 µM | TGI (BT-549 breast): > 100 µM | TGI (LOX IMVI melanoma): > 100 µM | TGI (HCT-116 colon): > 100 µM | TGI (SK-MEL-2 melanoma): > 100 µM | TGI (HOP-92 NSCLC): > 100 µM | TGI (MDA-MB-231 breast): > 100 µM | TGI (SK-MEL-28 melanoma): > 100 µM | TGI (MDA-N): > 100 µM | TGI (NCI-H226 lung): > 100 µM | TGI (NCI-H522 lung): > 100 µM

O=C(CC(C(=O)c1cccs1)c1ccsc1)c1cccs1 (stereo not given)
TGI (KM12 colon): > 100 µM | TGI (OVCAR-5 ovarian): > 100 µM | TGI (SK-MEL-5 melanoma): > 100 µM | TGI (SF-539 CNS): > 100 µM | TGI (COLO 205 colon): > 100 µM | TGI (NCI-H460 lung): > 100 µM | TGI (SW-620 colon): > 100 µM | TGI (DU-145 prostate): > 100 µM | TGI (OVCAR-8 ovarian): > 100 µM | TGI (NCI-H23 lung): > 100 µM | TGI (UACC-62 melanoma): > 100 µM | TGI (HOP-62 NSCLC): > 100 µM | TGI (MCF7 breast): > 100 µM | TGI (CCRF-CEM leukemia): > 100 µM | TGI (SNB-75 CNS): > 100 µM | TGI (NCI/ADR-RES ovarian): > 100 µM | TGI (UO-31 renal): > 100 µM | TGI (U251 CNS): > 100 µM | TGI (SNB-19 CNS): > 100 µM | TGI (UACC-257 melanoma): > 100 µM | TGI (OVCAR-4 ovarian): > 100 µM | TGI (MALME-3M melanoma): > 100 µM | TGI (OVCAR-3 ovarian): > 100 µM | TGI (T-47D breast): > 100 µM | TGI (HCT-15 colon): > 100 µM | TGI (786-0 renal): > 100 µM | TGI (HT29 colon): > 100 µM | TGI (SF-295 CNS): > 100 µM | TGI (PC-3 prostate): > 100 µM | TGI (RXF 393 renal): > 100 µM | TGI (TK-10 renal): > 100 µM | TGI (SK-OV-3 ovarian): > 100 µM | TGI (IGROV1 ovarian): > 100 µM | TGI (SN12C renal): > 100 µM | TGI (HS 578T breast): > 100 µM | TGI (MDA-MB-435): 92.4 µM | TGI (ACHN renal): > 100 µM | TGI (EKVX NSCLC): 76.8 µM | TGI (CAKI-1 renal): > 100 µM | TGI (SR leukemia): > 100 µM | TGI (A498 renal): > 100 µM | TGI (K-562 leukemia): > 100 µM | TGI (A549 NSCLC): > 100 µM | TGI (SF-268 CNS): > 100 µM | TGI (MOLT-4 leukemia): > 100 µM | TGI (HCC-2998 colon): > 100 µM | TGI (BT-549 breast): > 100 µM | TGI (HCT-116 colon): > 100 µM | TGI (HOP-92 NSCLC): > 100 µM | TGI (MDA-MB-231 breast): > 100 µM | TGI (SK-MEL-28 melanoma): > 100 µM | TGI (MDA-N): 80.5 µM | TGI (NCI-H226 lung): > 100 µM | TGI (NCI-H522 lung): > 100 µM

Source: PubChem BioAssay (NCI)
